Earlier results on one compound are cited in patent publication US20130150551A1, “PROCESSES FOR THE PRODUCTION OF HYDROGENATED PRODUCTS AND DERIVATIVES THEREOF” (BIOAMBER S.A.S., priority 2010, published 2013).

For this data set the following is noted: first acid group.

As for `O=C(O)CCCCC(=O)O` [AA, adipic acid], the pKa1 is recorded as 4.43.
